Patent US9266891B2, “Substituted [1,2,4]triazolo[4,3-A]pyrazines that are BRD4 inhibitors” (Boehringer Ingelheim International GmbH, priority 2012, dated 2016)

Target: BRD4-BD1 (Homo sapiens (Human), UniProt O60885)
Test: BRD4-H4 tetraacetylated peptide inhibition AlphaScreen
Assay type: binding
Conditions: GST-BRD4-BD1 (aa 44-168) with biotinylated Acetyl-Histone H4 (Lys5, 8, 12, 16) peptide
Description: Biological Methods BRD4-H4 Tetraacetylated Peptide Inhibition AlphaScreen
Compounds are diluted in serial dilution 1:5 in assay buffer from 10 mM stock in DMSO (100 μM start concentration) in white OptiPlate-384 (PerkinElmer). A mix consisting of 15 nM GST-BRD4-BD1 protein (aa 44-168) or 150 nM GST-BRD4-BD2 (aa 333-460) and 15 nM biotinylated Acetyl-Histone H4 (Lys5, 8, 12, 16) peptide is prepared in assay buffer (50 mM HEPES pH=7.4; 25 mM NaCl; 0.05% Tween 20; 0.1% bovine serum albumin (BSA); 10 mM dithiothreitol (DTT)). 6 μl of the mix is added to the compound dilutions. Subsequently, 6 μl of premixed AlphaLISA Glutathione Acceptor Beads and AlphaScreen Streptavidin Donor Beads from PerkinElmer (in assay buffer at a concentration of 10 μg/ml each) are added and the samples are incubated for 30 min at RT in the dark (shaking 300 rpm). Afterwards, the signal is measured in a PerkinElmer Envision HTS Multilabel Reader using the AlphaScreen protocol from PerkinElmer. Each plate contains negative controls where biotinylated Acetyl-Histone H4 peptide and GST-BRD4-BD1 or GST-BRD4-BD2 are left out and replaced by assay buffer. Negative control values are entered as low basis value when using the software GraphPad Prism for calculations. Furthermore, a positive control (probe molecule JQ1+ with protein/peptide mix) is pipetted. Determination of IC50 values are carried out using GraphPad Prism 3.03 software (or updates thereof).

SMILES | IC50
CNc1nc(-c2cn(C)nc2Cc2ccccc2)cn2c(C)nnc12 [Example I-1, 6-(3-benzyl-1-methyl-1H-pyrazol-4-yl)-N,3-dimethyl-[1,2,4]triazolo[4,3-a]pyrazin-8-amine] | 61 nM
CNc1nc(-c2cnn(C)c2Oc2ccccc2)cn2c(C)nnc12 [Example I-2] | 41 nM
Cc1nc(-c2cnn(C)c2Oc2ccccc2)cn2c(C)nnc12 [Example I-3] | 41 nM
CNc1nc(-c2nn(C)c(C)c2Cc2ccccc2)cn2c(C)nnc12 [Example I-4] | 18 nM
CNc1nc(-c2nc(C)c(C)n2Cc2ccccc2)cn2c(C)nnc12 [II-2] | 15 nM
Cc1nc(-c2cn3c(C)nnc3c(C)n2)n(Cc2ccccc2)c1C [II-3] | 31 nM
COCCN1CCC(Nc2nc(-c3nc4ccccc4n3[C@@H](C)c3ccccc3)cn3c(C)nnc23)CC1 [III-2] | 41 nM
COCCN1CCC(Nc2nc(-c3nc4ccccc4n3[C@H](C)c3ccccc3)cn3c(C)nnc23)CC1 [III-3] | 49 nM
CNc1nc(-c2nc3ccccc3n2Cc2ccccc2)cn2c(C)nnc12 [III-7] | 22 nM
Cc1nc(-c2nc3cnc(N4CCN(C)CC4)cc3n2Cc2ccccc2)cn2c(C)nnc12 [III-9] | 14 nM
CNc1nc(-c2nc3cccnc3n2Cc2ccccc2)cn2c(C)nnc12 [III-10] | 18 nM
CCNc1nc(-c2nc3cnc(N4CCN(C)CC4)cc3n2Cc2ccccc2)cn2c(C)nnc12 [III-17] | 17 nM
Cc1nnc2c(NC(C)C)nc(-c3nc4cnc(N5CCN(C)CC5)cc4n3Cc3ccccc3)cn12 [III-18] | 26 nM
Cc1nnc2c(NC(C)C)nc(-c3nc4cnc(N5CCOC[C@@H]5C)cc4n3[C@@H](C)c3ccccc3)cn12 [III-19] | 38 nM
CNc1nc(-c2nc3cnc(N4CCN(C)CC4)cc3n2Cc2ccccn2)cn2c(C)nnc12 [III-20] | 13 nM
Cc1nnc2c(N[C@@H]3CCOC3)nc(-c3nc4cnc(N5CCOCC5)cc4n3Cc3ccccn3)cn12 [III-24] | 20 nM
Cc1nnc2c(NC(C)C)nc(-c3nc4cnc(N(C)C)cc4n3Cc3ccccn3)cn12 [III-31] | 13 nM
Cc1nnc2c(NC(C)C)nc(-c3nc4ccccc4n3Cc3ccccn3)cn12 [III-33] | 20 nM

SMILES | IC50
COc1ccc2nc(-c3cn4c(C)nnc4c(NC(C)C)n3)n(Cc3ccccn3)c2c1 [III-34] | 45 nM
Cc1ccc2nc(-c3cn4c(C)nnc4c(NC(C)C)n3)n(Cc3ccccn3)c2c1 [III-35] | 15 nM
Cc1cc2c(cn1)nc(-c1cn3c(C)nnc3c(NC(C)C)n1)n2Cc1ccccn1 [III-36] | 28 nM
Cc1nnc2c(NC(C)C)nc(-c3nc4cnccc4n3Cc3ccccn3)cn12 [III-37] | 14 nM
Cc1cccc(Cn2c(-c3cn4c(C)nnc4c(NC(C)C)n3)nc3cnc(N4CCOCC4)cc32)n1 [III-38] | 17 nM
COc1cc2c(cn1)nc(-c1cn3c(C)nnc3c(NC(C)C)n1)n2Cc1ccccn1 [III-39] | 126 nM
Cc1nnc2c(NC(C)C)nc(-c3nc4cnc(C(C)C)cc4n3Cc3ccccn3)cn12 [III-40] | 18 nM
Cc1nnc2c(NC(C)C)nc(-c3nc4cnc(N5CCOC[C@@H]5C)cc4n3[C@@H](C)c3ccccn3)cn12 [III-41] | 74 nM
Cc1nnc2c(NC(C)C)nc(-c3nc4cnc(C(C)C)cc4n3[C@@H](C)c3ccccn3)cn12 [III-42] | 66 nM
Cc1nnc2c(NC(C)C)nc(-c3nc4cnc(C5CCOCC5)cc4n3Cc3ccccn3)cn12 [III-43] | 34 nM
Cc1nnc2c(NC(C)C)nc(-c3nc4ccc(C5CCOCC5)cc4n3Cc3ccccn3)cn12 [III-44] | 32 nM
Cc1nnc2c(NC(C)C)nc(-c3nc4ccc(C5CCOCC5)cc4n3[C@@H](C)c3ccccn3)cn12 [III-45] | 69 nM
Cc1nnc2c(NC(C)C)nc(-c3nc4ccc(C(C)C)cc4n3[C@@H](C)c3ccccn3)cn12 [III-46] | 243 nM
CNc1nc(-c2nc3cnc(N4CCN(C)CC4)cc3n2Cc2cccnc2)cn2c(C)nnc12 [III-47] | 12 nM
Cc1nnc2c(N[C@@H]3CCOC3)nc(-c3nc4cnc(N5CCOCC5)cc4n3Cc3cccnc3)cn12 [III-51] | 13 nM
Cc1cc2c(cn1)nc(-c1cn3c(C)nnc3c(N[C@@H]3CCOC3)n1)n2Cc1cccnc1 [III-52] | 31 nM
CNc1nc(-c2nc3cnc(N4CCN(C)CC4)cc3n2Cc2ccncc2)cn2c(C)nnc12 [III-53] | 12 nM

Compounds with a lower IC50, results first:

IC50 | SMILES
4 nM | CNc1nc(-c2nc(-c3ccccc3)c(C)n2Cc2ccccc2)cn2c(C)nnc12 [II-1, 6-(1-benzyl-5-methyl-4-phenyl-1H-imidazol-2-yl)-N,3-dimethyl-[1,2,4]triazolo[4,3-a]pyrazin-8-amine]
7 nM | Cc1nnc2c(NC3CCN(C)CC3)nc(-c3nc4ccccc4n3Cc3ccccc3)cn12 [III-1, N-[6-(1-benzyl-1H-1,3-benzodiazol-2-yl)-3-methyl-[1,2,4]triazolo[4,3-a]pyrazin-8-yl]-1-methylpiperidin-4-amine]
8 nM | COCCN1CCC(Nc2nc(-c3nc4ccccc4n3Cc3ccccc3)cn3c(C)nnc23)CC1 [III-4]
9 nM | COCCN1CCC(Nc2nc(-c3nc4ccccc4n3Cc3ccc(F)cc3)cn3c(C)nnc23)CC1 [III-5]
9 nM | COCCN1CCC(Nc2nc(-c3nc4ccccc4n3Cc3ccc(F)c(F)c3)cn3c(C)nnc23)CC1 [III-6]
9 nM | CNc1nc(-c2nc3cnc(N4CCN(C)CC4)cc3n2Cc2ccccc2)cn2c(C)nnc12 [III-8]
9 nM | CNc1nc(-c2nc3cnc(N4CCN(C)CC4)nc3n2Cc2ccccc2)cn2c(C)nnc12 [III-11]
7 nM | COCCN1CCC(Nc2nc(-c3nc4ccc(N5CCOCC5)cc4n3Cc3ccccc3)cn3c(C)nnc23)CC1 [III-12]
9 nM | CNc1nc(-c2nc3ccc(N4CCN(C)CC4)cc3n2Cc2ccccc2)cn2c(C)nnc12 [III-13]
10 nM | CNc1nc(-c2nc3ccc(N4CCOCC4)cc3n2Cc2ccccc2)cn2c(C)nnc12 [III-14]
3 nM | COCCN1CCC(Nc2nc(-c3nc4cc(C5=NNC(=O)CC5C)ccc4n3Cc3ccccc3)cn3c(C)nnc23)CC1 (stereo not drawn) [III-15]
5 nM | CNc1nc(-c2nc3cc(C4=NNC(=O)CC4C)ccc3n2Cc2ccccc2)cn2c(C)nnc12 (stereo not drawn) [III-16]
8 nM | CNc1nc(-c2nc3ccc(N4CCN(C)CC4)cc3n2Cc2ccccn2)cn2c(C)nnc12 [III-21]
3 nM | CNc1nc(-c2nc3cnc(N4CCOCC4)cc3n2Cc2ccccn2)cn2c(C)nnc12 [III-22]
3 nM | CNc1nc(-c2nc3ccc(N4CCOCC4)cc3n2Cc2ccccn2)cn2c(C)nnc12 [III-23]
11 nM | CNc1nc(-c2nc3cc(C4CCOCC4)ccc3n2Cc2ccccn2)cn2c(C)nnc12 [III-25]
5 nM | Cc1nnc2c(NC(C)C)nc(-c3nc4ccc(N5CCOCC5)cc4n3Cc3ccccn3)cn12 [III-26]
10 nM | Cc1nnc2c(NC(C)C)nc(-c3nc4cnc(N5CCOCC5)cc4n3Cc3ccccn3)cn12 [III-27]
1 nM | Cc1nnc2c(NC(C)C)nc(-c3nc4cnc(N5CCOCC5)cc4n3Cc3ccc(F)cn3)cn12 [III-28]
9 nM | Cc1nnc2c(NC(C)C)nc(-c3nc4cnc(N5CCOC[C@H]5C)cc4n3Cc3ccccn3)cn12 [III-29]
9 nM | Cc1nnc2c(NC(C)C)nc(-c3nc4cnc(N5CCOC[C@@H]5C)cc4n3Cc3ccccn3)cn12 [III-30]
7 nM | Cc1nnc2c(NC(C)C)nc(-c3nc4ccc(N(C)C)cc4n3Cc3ccccn3)cn12 [III-32]
8 nM | CNc1nc(-c2nc3ccc(N4CCN(C)CC4)cc3n2Cc2cccnc2)cn2c(C)nnc12 [III-48]
4 nM | CNc1nc(-c2nc3cnc(N4CCOCC4)cc3n2Cc2cccnc2)cn2c(C)nnc12 [III-49]
5 nM | CNc1nc(-c2nc3ccc(N4CCOCC4)cc3n2Cc2cccnc2)cn2c(C)nnc12 [III-50]
